Data from the METLIN SMRT retention time set (Domingo-Almenara et al. 2019).

Test: gradient 5% acetonitrile 3 min, to 50% in 2 min, to 85% in 15 min, held 3 min, 100 µL/min
Conditions: column: Zorbax Extend-C18 2.1 x 50 mm; eluents: water / acetonitrile, 0.1% formic acid
Summary of the method: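 Mixtures of ~100 pure standards were chromatographed on a Zorbax Extend-C18 column (2.1 × 50 mm, 1.8 μm) at 100 μL/min using water and acetonitrile, each with 0.1% formic acid. Detection used a quadrupole time-of-flight mass spectrometer in positive and negative ionization mode, and data collection spanned 3 months. Retention time was obtained from adduct peaks picked computationally and each checked manually.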

Compound	RP-LC retention time [s]
CC(C)Cc1csc(-c2csc(S(=O)(=O)NCc3cc(F)cc(F)c3)c2)n1	1200
COc1ccccc1-c1nc(C2CCN(C(=O)c3cc4ccccc4[nH]3)CC2)no1	930
CC(=O)c1ccc(NC(=O)c2nc3nc(C)cc(C(F)F)n3n2)cc1	722
CCCS(=O)(=O)N1CCC(Cc2nc(-c3ccncc3)n[nH]2)C1 (stereo not given)	576
CC(C)(C)c1cc(C(=O)Nc2ccccc2)nc2ccnn12	1250
Cc1ccc(NC(=O)C2CCN(S(=O)(=O)c3c(C)[nH]c(C)c3C(=O)N3CCCC3)CC2)cc1C	727
CC(=O)Nc1ccc(S(=O)(=O)N2CCc3c(c(-c4nnc(-c5ccc(F)cc5)o4)nn3C)C2)cc1	783
COc1ccc(OC)c(NC(=O)C2CCCN2S(=O)(=O)c2cc3c(cc2Cl)NC(=O)CO3)c1 (stereo not given)	829
COc1ccc(C(=O)CSc2nc3ccccc3[nH]2)cc1	647
Cc1ccc(NC(=O)c2cc(C(C)C)n3nccc3n2)cc1C	1250
CN(C)c1ccc2c(c1)CN(C(=O)C1CC=CC1)CCO2	610
NC(=O)C1CCN(C(c2ccccc2F)c2sc3nc(-c4ccco4)nn3c2O)CC1 (stereo not given)	677
CCOC(=O)C(C)(C)Sc1nnc(N2CCN(c3ccccc3)CC2)s1	997
Cc1ccc2[nH]cc(CCNC(=O)c3c(-c4ccccn4)noc3C)c2c1	964
CCNC(=O)Nc1ccc(OCC(=O)NC2CCN(Cc3ccccc3)CC2)nc1	584
COc1nn(C)cc1C(=O)Nc1ccccc1SC	776
O=C(COc1ccc(Cl)cc1)N1CCN(c2nc(CN3CCOCC3)cs2)CC1	643
O=C(Nc1ccc(S(=O)(=O)N2CCCCC2c2cccnc2)cc1)c1ccccc1F (stereo not given)	617
O=C(Nc1ccc(Cl)cc1)C(=O)c1c[nH]c2ccccc12	1030
COc1ccc(C2CC(=O)c3c([nH]c(C(=O)OC4CCCCC4)c3C)C2)cc1OC (stereo not given)	1070
CCC(C(=O)NCc1ccco1)n1nc(C)c2c(C)n(-c3ccccc3)nc2c1=O (stereo not given)	831
CCOC(=O)N1CCC(Nc2c(C(=O)OC)c(=O)[nH]c3c(Cl)cccc23)CC1	731
Cc1ccc(-c2nnc(C)c(NCCN3CCOCC3)n2)cc1	547

Compound	RP-LC retention time [s]
Cc1ccccc1S(=O)(=O)N1CCC2(CC1)CC(OCC1CC1)CCO2 (stereo not given)	1080
CCc1nnc(-c2cc(NC(=O)Cc3c[nH]c4ccccc34)c(C)s2)o1	720
CCN(c1ccccc1C)S(=O)(=O)c1cc(-c2[nH]ncc2C(=O)N2CCCC2)oc1C	819
CSc1ccc(-c2nc3cc(C)ccn3c2Nc2ccc(C)cc2)cc1	808
COc1ccccc1CNC(=O)C1CCN(c2cc(N3CCSCC3)ncn2)CC1	717
O=C(NCC1CN(c2ccc3c(c2)OCO3)C(=O)O1)c1cccs1 (stereo not given)	678
Cc1[nH]c(C(=O)N2CCC(CC(=O)NC3CCCCCC3)CC2)c(C)c1C	872
COCCN1C(=O)[C@H]2CN(Cc3ccc(F)c(F)c3)C[C@H]2C1=O	623
COC(=O)c1ccccc1NC(=O)CSc1ccc(N2CCCC(C(=O)NC3CC3)C2)nn1 (stereo not given)	683
COC(=O)c1ccccc1NC(=O)Cn1cnc2nc(-c3ccc(OC)cc3)ncc2c1=O	925
O=C(Cc1cccs1)NC1CC(=O)N(Cc2ccccc2)C1 (stereo not given)	712
O=C(NCC1CCOCC1)Nc1ccc(F)c(Cl)c1	728
Cc1ccc(-c2nc(-c3ccc4c(c3)oc(=O)n4C)no2)cc1C	1180
O=S(=O)(c1ccccc1C(F)(F)F)N1CCc2nc(-c3ccccc3)ncc2C1	1110
CCn1cc(CCNC(=O)Nc2ccc3c(c2)OCO3)c2cccnc21	672
O=C(NC1(c2nc(-c3cccnc3)no2)CCCCC1)c1cc(C2CC2)[nH]n1	700
Cc1ccccc1NC(=O)C1CCCN(c2nc3ccccc3nc2C(F)(F)F)C1 (stereo not given)	1190
O=C(Cn1nc2n(c1=O)CCCC2)NCCCc1ccccc1	709
CCOC(=O)CNC(=O)NC(C(=O)N1CCc2ccccc21)C(C)C (stereo not given)	783
CS(=O)(=O)N1CCC(C(=O)NCc2ccccc2Cl)Oc2ccccc21 (stereo not given)	888
CCOC(=O)C1C(=O)C=C(c2cccc(NS(C)(=O)=O)c2)CC1c1ccccc1F (stereo not given)	840
CCOC(=O)Cn1c(-c2nnc(C)o2)cc2ccccc21	827
CN(CC(=O)N1CCN(c2ccc(Cl)cc2)CC1)S(=O)(=O)c1c[nH]c(C(=O)N2CCCC2)c1	837

Compound	RP-LC retention time [s]
Cc1nc(C(=O)Nc2cc(F)ccc2F)c(C)o1	998
COc1cccc(Nc2nc(-c3ccc(I)cc3)cs2)c1	1270
Cc1cc(C2CCCN2C(=O)Nc2ccc(C)c(Cl)c2)on1 (stereo not given)	893
COC(=O)c1ccc(C(=O)OC)c(NC(=O)N2CCC(CN3CC(C)CC(C)C3)CC2)c1 (stereo not given)	722
O=C(Cn1c(=O)c2cc(C3CC3)nn2c2ncccc21)Nc1ccc2c(c1)OCCO2	736
Cc1cnc2cc(Cl)ccc2c1SCC(=O)O	816
O=C(NCc1nc(-c2ccc(N3CCCCCC3)cc2)no1)c1ccco1	1020
Cc1ccc(-c2nc(C3CC(=O)N(c4ccc(F)c(Cl)c4)C3)no2)c(C)c1 (stereo not given)	1250
COc1ccc(-c2nc(-c3cn(-c4ccc(F)cc4)nn3)no2)c(OC)c1	974
CCOC(=O)Cc1csc(NC(=O)Cc2cc(-c3cc4ccccc4o3)on2)n1	891
O=c1c(=O)n(-c2ccccc2)ccn1Cc1nc(-c2ccc3c(c2)OCO3)no1	773
CN1CCN(C(=O)c2ccc(CN3CCN(Cc4ccc(F)cc4)C(=O)C3=O)cc2)CC1	592
Cc1cc(C(=O)Nc2ccc(S(C)(=O)=O)cc2)no1	632
CCN1c2ccccc2C(=O)NC12CCN(C(=O)c1cc(OC)cc(OC)c1)CC2	771
CN1CCC(NC(=O)c2ncoc2-c2ccccc2)CC1	602
O=C([C@@H]1C[C@H](F)CN1C(=O)Nc1cccc(Br)c1)N1CCCCC1	753
C[C@@H]1O[C@@H](O[C@H]2[C@H](Oc3cc(O)c(C(=O)CCc4ccc(O)cc4)c(O)c3)O[C@H](CO)[C@@H](O)[C@@H]2O)[C@H](O)[C@H](O)[C@H]1O	650
O=C(c1ccc(F)cc1)N1CCCC1c1nc(-c2ccccc2)n[nH]1 (stereo not given)	726
Cc1ccc(Cn2c(N3CCC(C(=O)NCC4CC4)CC3)nc3ccsc3c2=O)cc1	879
COc1cccc(C(=O)CSc2ccc(-n3cccn3)nn2)c1	847
CN1C(=O)CCS(=O)(=O)C1c1ccc(Cl)cc1 (stereo not given)	759
CCOc1ccccc1CNC(=O)C1CCCN(c2ccc(=O)n(-c3ccc(C)c(Cl)c3)n2)C1 (stereo not given)	828
Cc1cccc(CNC(=O)c2cn3cc(C)ccc3n2)c1	708

Compound	RP-LC retention time [s]
O=C(Cc1c(F)cccc1Cl)N1C[C@@H]2C[C@H]1C[C@@H]2NS(=O)(=O)c1ccccc1	852
CCCc1noc(-c2cccnc2N2CCCN(Cc3cc(F)cc(F)c3)CC2)n1	733
O=C(CSc1nnnn1-c1ccccc1)c1ccc2c(c1)OCCO2	868
CCCNC(=O)N1CCC(N2CCN(Cc3cccc(F)c3)C(=O)C2=O)CC1	651
CSc1nc(N2CCCC2)c2cnn(CCNC(=O)CSc3ccc(F)cc3)c2n1	829
CCCNC(=O)N(C1CCOCC1)C1CCN(S(=O)(=O)c2ccccc2CC)CC1	899
COc1ccc2c(C)c(C(=O)Nc3cc(C)ns3)oc2c1	826
CC(C)CN1CCN(C(=O)CN2CCN(Cc3ccc(F)cc3Cl)C2=O)CC1	634
CCc1ccc(-c2noc(Cn3c(=O)n(-c4ccc(F)cc4)c(=O)c4sccc43)n2)cc1	1090
CCOc1ccc(S(=O)(=O)NCc2ccc3c(c2)CCN3C(=O)c2ccccc2)cc1	953
CC1CCN(C(=O)C2CC(=O)N(c3ccccc3)C2)CC1 (stereo not given)	764
CCNC(=O)c1cc(C)on1	596
COc1ccc(NC(=O)C2CCCCC2)c2ccccc12	861
CCc1cccc(NS(=O)(=O)c2cc3n(c2)CCCN(CC)C3=O)c1	756
CCC(C)NS(=O)(=O)c1ccc(-c2n[nH]c(C)c2C)o1 (stereo not given)	772
Cc1cccc(NC(=O)N2CCc3nc(-c4ccc(Cl)cc4)ncc3C2)c1C	660
Cc1cccc(NC(=O)N(C)CCc2noc(COc3ccccc3F)n2)c1C	823
COc1ccc(N2CCN(CCNC(=O)c3ccc(S(=O)(=O)N(C)C)cc3)CC2)cc1	589
CC(=O)N1CCC(C(=O)Nc2ccc(OCc3nnc(-c4ccccc4)o3)cc2)CC1	712
Cc1oc(-c2[nH]ncc2C(=O)N2CCCC2)cc1S(=O)(=O)NCc1cccc(F)c1	706
Cc1cccc(NC(=O)Cn2c(=O)nc(N3CCC(C)CC3)c3ccccc32)c1C	909
